Source: patent publication US4503076A, “Vasodilator compound and pharmaceutical compositions therefrom” (Ausonia Farmaceutic s.r.l., priority 1981, dated 1985)
Like-named read-outs stand apart in the source and are kept apart here.

Key:
[1] = test system: rats having normal blood pressure; test: Hypotensive activity in rats having normal blood pressure; format: in vivo; conditions: for Time of maximum hypotensive effect: i.p., rats with normal blood pressure
Description: The product has been administered by the intraperitoneal route to rats having normal blood pressure in the dose of 10 and 25 mg/kg. The systolic pressure of the animals has been measured 1, 4, and 24 hours respectively after the treatment using hydralazine in the dose of 1 mg/kg intraperitoneally for comparison. […] When the substance is administered in the dose of 25 mg/kg, the decrease in the systolic pressure is 2.5 times the decrease caused by hydralazine administered in the dose of 1 mg/kg.

[2] = test system: isolated small intestine (ileum) of guinea pigs; test: Spasmolytic activity in vitro on the isolated small intestine (ileum) of guinea pigs, barium chloride as agonist; conditions: 10^-6 g/cc; for % inhibition: incubation 1 minute, BaCl2 2.10^-6 g/cc
Description: The tests are carried out in vitro utilizing the isolated small intestine of guinea pigs. As agonist, there is used barium chloride in the dose of 2.10^-6 g/cc. The substance AF 544 and papaverine, which is a substance having well-known spasmolytic activity, are tested in the same concentration of 10^-6 g/cc.

[3] = test system: lower limb of rats (vascular zone); test: Vasodilator activity, perfusion of the lower limb of rats (Foster et al.); conditions: for inhibition at 50 µg/mL: read-out: Decrease in pressure, %
From the text: (Foster et al., J.Pharmacol.Exp.Ther. 89,256,1947)
This study has been carried out in rats by perfusion of the lower limb while determining the variation of the resistance offered by the vascular zone after the perfusion by means of a suitable pressure transducer.
The vaso-constricting agent used is a solution containing a high content of potassium, together with papaverine, the latter being used for comparison purposes.

[4] = test system: rats treated to cause an increase in blood pressure by tying the abdominal aorta; test: Antihypertensive activity in rats with tied abdominal aorta, blood pressure; format: in vivo
Description: (§1) In a second experiment, the substance AF 544 has been administered to rats which have been treated to cause an increase in blood pressure, specifically by tying the abdominal aorta. The administration has been carried out by the oral route in the dose of 20 and 40 mg/kg respectively. Measurements of diastolic pressure, systolic pressure and average pressure are made after 1, 15, and 30 minutes. After 30 minutes, for each group, determinations are made of the hematic renin and the hematic angiotensin. The dose of 20 mg/kg is found to reduce the diastolic pressure of 10-15% while the systolic pressure and the average pressure remain unchanged. On the other hand, the dose of 40 mg/kg is found to be effective on all three parameters, causing an average reduction of about 25%.

Solubility = format: physicochemical
[5] = test system: rats having genetically high blood pressure; test: Antihypertensive activity in rats having genetically high blood pressure; format: in vivo; conditions: 25 mg/kg orally
Description: There are utilized for this test rats having genetically high blood pressure. The rats are treated for three days with AF 544 in the dose of 25 mg/kg orally. After each treatment and specifically after 1, 4, 8 and 24 hours respectively, the systolic pressure of the animals is measured.

[6] = Acute toxicity (DL50) in mice; conditions: mouse, in vivo
From the text: The DL50 has been determined in mice by the oral as well as intraperitoneal route.

renin = test: Hematic renin in rats with tied abdominal aorta; format: in vivo; conditions: 20 and 40 mg/kg oral, after 30 minutes
Description: as §1

anaesthesized cats = test: Effect on the circulation and on breathing of anaesthetized cats; format: in vivo
Description: For this test, six cats of both sexes are used. The animals had been brought to a state of anaesthesia by means of urethane. The substance AF 544 is administered by the endovenous route in the dose of 0.1-1 mg/kg. The following parameters have been studied: average arterial pressure, amplitude and respiratory frequency, effect on pressure responses to various agonists, (acetylcholine, adrenaline, occlusion of the carotid artery, and vagal stimulation).

angiotensin = test: Hematic angiotensin in rats with tied abdominal aorta; format: in vivo; conditions: 20 and 40 mg/kg oral, after 30 minutes
Description: as §1

[7] = perfused rat lower limb, dose 5.10^-5 g/cc, high-potassium vasoconstriction

In the case of NNc1nncc2ccccc12 [HYDRALAZINE, hydralazine, reference compound], the “Percentage variation of systolic pressure with respect to the basal values” ([1]; 1 mg/kg i.p., 1 hour) is reported as “+21.0 ± 4.9%”, the “Percentage variation of systolic pressure with respect to the basal values” ([1]; 1 mg/kg i.p., 4 hours) is reported as -18.0 ± 3.1% and the “Percentage variation of systolic pressure with respect to the basal values” ([1]; 1 mg/kg i.p., 24 hours) is reported as -7.5 ± 7.8%. For the same compound, the “Time of maximum hypotensive effect” value [1] was “reaches the maximum even during the first hour”.
For COc1ccc(Cc2nccc3cc(OC)c(OC)cc23)cc1OC [PAPAVERINE, papaverine, reference compound], the “% inhibition” value [2] was 73.7 ± 8.09%, the inhibition at 50 µg/mL ([3]; Rattus norvegicus) was 39.3% and the “Decrease in pressure, mm Hg ± e.s” value [3, 7] was 82 ± 13.6 mm Hg.
With CC(=N)Nc1c(Cl)cccc1Cl [AF 544, N-(2,6-dichlorophenyl)acetamidine] the “Percentage variation of systolic pressure with respect to the basal values” ([1]; 10 mg/kg i.p., 1 hour) was -1.5 ± 1.8%, the “Percentage variation of systolic pressure with respect to the basal values” ([1]; 10 mg/kg i.p., 4 hours) was -13.1 ± 6.8% and the “Percentage variation of systolic pressure with respect to the basal values” ([1]; 25 mg/kg i.p., 1 hour) was -6.6 ± 13.4%. For the same compound, the “Percentage variation of systolic pressure with respect to the basal values” ([1]; 25 mg/kg i.p., 4 hours) was -46.2 ± 3.4%, the “Percentage variation of systolic pressure with respect to the basal values” ([1]; 25 mg/kg i.p., 24 hours) was -2.2 ± 2.8% and the “Dose dependence of hypotensive activity” value ([1]; 10 and 25 mg/kg i.p.) was “depends on the dose”. For the same compound, the “Decrease in systolic pressure relative to the decrease caused by hydralazine” value ([1]; AF 544 25 mg/kg i.p. vs hydralazine 1 mg/kg i.p.) was 2.5 times, the “Time of maximum hypotensive effect” value [1] was “reaches the maximum effect during the fourth hour” and the “Spasmolytic activity (in words)” value ([2]; efficacy compared with papaverine in the same concentration) was “high spasmolytic activity with an efficacy which is statistically analogous to that of papaverine in the same concentration”. The “% inhibition” value [2] was 49.8 ± 7.44%, the “Effect on average pressure” value ([4]; 20 mg/kg oral) was “unchanged” and the “Effect on systolic pressure” value ([4]; 20 mg/kg oral) was “unchanged”. For the same compound, the “Reduction of diastolic pressure” value ([4]; 20 mg/kg oral) was 10-15%, the “Average reduction of all three parameters (diastolic, systolic and average pressure)” value ([4]; 40 mg/kg oral) was “about 25%” and the “Solubility in common organic solvents” value (Solubility; by heating, common organic solvents) was “soluble by heating in common organic solvents”. For the same compound, the “Time of maximum decrease of pressure” value [5] was “between the fourth and eighth hour”, the “Percentage variation of (systolic) pressure with respect to the basal values of the first day” value (“Percentage variation … of the first day” for short) ([5]; day 1, 1 hour) was -5% and the “Percentage variation … of the first day” value ([5]; day 1, 4 hours) was -20%. For the same compound, the “Percentage variation … of the first day” value ([5]; day 1, 8 hours) was -18%, the “Percentage variation … of the first day” value ([5]; day 1, 24 hours) was -19% and the “Percentage variation … of the first day” value ([5]; day 2, 1 hour) was -26%. For the same compound, the “Percentage variation … of the first day” value ([5]; day 2, 4 hours) was -20%, the “Percentage variation … of the first day” value ([5]; day 2, 8 hours) was -27% and the “Percentage variation … of the first day” value ([5]; day 2, 24 hours) was -28%. The “Percentage variation … of the first day” value ([5]; day 3, 1 hour) was -22%, the “Percentage variation … of the first day” value ([5]; day 3, 4 hours) was -11% and the “Percentage variation … of the first day” value ([5]; day 3, 8 hours) was -15%. For the same compound, the “Percentage variation … of the first day” value ([5]; day 3, 24 hours) was -12%, the “Decrease of pressure at the twenty-fourth hour (in words)” value ([5]; relative to the maximum at 4-8 hours) was “remaining about the same during the twenty-fourth hour” and the LD50 ([6]; ip) was 170 mg/kg. For the same compound, the LD50 ([6]; po, orally) was 420 mg/kg, the “Vasodilator activity (in words)” value ([3]; compared with papaverine at equal dose) was “substantial vasodilator activity, which is only slightly inferior to that of papaverine at equal dose” and the “Decrease in pressure, mm Hg ± e.s” value [3, 7] was 60 ± 3.2 mm Hg. For the same compound, the inhibition at 50 µg/mL [3, 7] was 27.5%, the Activity of renin (renin) was “increases in proportion to the dose of AF 544” and the “Effect in % on pressure response to acetylcholine” value (anaesthesized cats; 0.1 mg/kg i.v.) was “+5.0%”. For the same compound, the “Effect in % on pressure response to adrenaline” value (anaesthesized cats; 0.1 mg/kg i.v.) was -25.6%, the “Effect in % on pressure response to carotid occlusion” value (anaesthesized cats; 0.1 mg/kg i.v.) was “+3.5%” and the “Effect in % on pressure response to vagal stimulation” value (anaesthesized cats; 0.1 mg/kg i.v.) was “+11.5%”. For the same compound, the “Effect on arterial pressure, %” value (anaesthesized cats; 0.1 mg/kg i.v.) was -13.9%, the “Effect on arterial pressure, mm Hg ± e.s” value (anaesthesized cats; 0.1 mg/kg i.v.) was -12.5 mm Hg and the “Respiration, amplitude %” value (anaesthesized cats; 0.1 mg/kg i.v.) was “+50.9%”. The “Respiration, frequency %” value (anaesthesized cats; 0.1 mg/kg i.v.) was “+31.4%”, the Transitory hypotension (anaesthesized cats; 0.1 mg/kg intravenously) was 13.9% and the “Effect in % on pressure response to acetylcholine” value (anaesthesized cats; 1 mg/kg i.v.) was “+4.5%”. The “Effect in % on pressure response to adrenaline” value (anaesthesized cats; 1 mg/kg i.v.) was “+4.0%”, the “Effect in % on pressure response to carotid occlusion” value (anaesthesized cats; 1 mg/kg i.v.) was “+2.5%” and the “Effect in % on pressure response to vagal stimulation” value (anaesthesized cats; 1 mg/kg i.v.) was “+20.4%”. For the same compound, the “Effect on arterial pressure, %” value (anaesthesized cats; 1 mg/kg i.v.) was -46.0%, the “Effect on arterial pressure, mm Hg ± e.s” value (anaesthesized cats; 1 mg/kg i.v.) was -36.7 mm Hg and the “Respiration, amplitude %” value (anaesthesized cats; 1 mg/kg i.v.) was “+16.1%”. For the same compound, the “Respiration, frequency %” value (anaesthesized cats; 1 mg/kg i.v.) was -8.5%, the Transitory hypotension (anaesthesized cats; 1 mg/kg intravenously) was 46.0% and the “Variations of the other parameters observed (in words)” value (anaesthesized cats; 0.1-1 mg/kg i.v., respiration, responses to agonists) was “small and statistically they are not significant”. For the same compound, the Quantity of angiotensin (angiotensin) was “an increase in the quantity of angiotensin occurs, which is inversely proportional to the dose of AF 544”.
In the case of CC(=N)Nc1c(Cl)cccc1Cl, the Solubility in water (Solubility; in water) is reported as “soluble in water”.
